The source of these data is patent US20250134851A1 (priority 2021, published 2025).

The subject of one data set is PC12 cells. Type of data set: cell-based.
Data set [1] is classed as physicochemical. Conditions: pH 7.
Data set [2] relates to hyperhidrosis (hand sweating). On the set-up: species or system human. The note with it: in vivo.
Data set [3] relates to sweating area of hind paw of ICR mice. Conditions: mouse, in vivo, 0.8 mg/kg.
Data set [4] relates to skin wrinkles under the eyes. On the set-up: species or system human. The note with it: in vivo.

Consider `CC(=O)Oc1c(-c2cc(O)c(O)c(O)c2)oc2cc(O)cc(O)c2c1=O` [3-Acetyl-Myricetin, 3-acetyl-myricetin], for which the “inhibition of acetylcholine release” value in the data set on PC12 cells is on record as “inhibit acetylcholine release”. Also, the Residual amount entry in data set [1] was “≈100%”. In addition, in data set [2], the Sweat weight is 28%. Also, in data set [3], the “sweating area relative to control” value is “improved effect to a degree that the previously reported myricetin derivatives cannot provide”. The “Reduction of skin wrinkle dermal density (%)” value (“Reduction … (%)” below) in data set [4] came to 78%.
Turning to `COc1cc(O)c2c(=O)c(OC)c(-c3cc(OC)c(OC)c(OC)c3)oc2c1` [Combretol, combretol], the Residual amount in data set [1] was <<10%. The same compound showed a Sweat weight in data set [2] of 56%. The “Reduction … (%)” value in data set [4] worked out at 36%.
On to `COc1cc(-c2oc3cc(O)cc(O)c3c(=O)c2O)cc(O)c1O` [Laricitrin, laricitrin], for which the Residual amount in data set [1] is on record as <<10%. Further, the Sweat weight in data set [2] is listed as 52%. The “Reduction … (%)” value in data set [4] was found to be 38%.
For `O=c1c(O)c(-c2cc(O)c(O)c(O)c2)oc2cc(O)cc(O)c12` [Myricetin, myricetin] the same measures were <<10%, 55% and 48%.
With `COc1cc(-c2oc3cc(O)cc(O)c3c(=O)c2O)cc(OC)c1O` [Syringetin, syringetin], the Residual amount in data set [1] was <<10%. This compound gave a Sweat weight in data set [2] of 53%. Besides, the “Reduction … (%)” value in data set [4] is reported as 37%.
